Experimental findings from patent publication US20220213047A1, “CARBONIC ANHYDRASE INHIBITORS FOR TREATMENT OF NEISSERIA GONORRHOEAE INFECTION” (Purdue Research Foundation, priority 2021, published 2022) are described below.

One assay relates to Enterococcus. The experiment in a line: MIC50 against pathogenic and commensal bacteria: Enterococcus. The following applies: Enterococcus (49 strains); normal. Format: cell-based. The source says:
(§1) We have shown that CAIs display a narrow-spectrum of activity (Table 6). We have previously shown that CAIs have potential as anti-enterococcal agents for decolonization of the gut and treating systemic vancomycin-resistant enterococci (VRE) infections without affecting commensal strains common in the human microbiome or other pathogenic bacteria. […] The extremely narrow spectrum of this class of inhibitors would be a positive for clinical use as the molecules: 1) would not have deleterious effects on normal microbiota, and 2) would have less opportunity for resistance to arise to other important pathogenic strains aside from VRE.

Assay [1] has as its system N. gonorrhoeae. The experiment in a line: Checkerboard assay, synergy with AZI. Format: cell-based. The following applies: combination with AZI, standard checkerboard assay. The source says:
CAIs work synergistically with approved antibiotics—Dual therapy with ceftriaxone and azithromycin is the recommended approach to treat infections caused by N. gonorrhoeae. The use of two antibiotics in conjunction is thought to curb the rapid emergence of resistance to either antibiotic, if used alone. Thus, we investigated the potential of CAIs to be used in combination with other antibiotics against N. gonorrhoeae^56 (FIG. 5).

In another assay the test system is L. jensenii. The experiment in a line: MIC50 against pathogenic and commensal bacteria: L. jensenii. To be noted: Lactobacillus jensenii; L. jensenii (3 strains); normal. The class given is cell-based.
Source text: as §1

For another assay, the system named is L. rhamnosus. The experiment in a line: MIC50 against pathogenic and commensal bacteria: L. rhamnosus. The class given is cell-based. The following applies: Lacticaseibacillus rhamnosus; L. rhamnosus (1 strain); normal.
Source text: as §1

Another assay deals with E. coli. The experiment in a line: MIC50 against pathogenic and commensal bacteria: E. coli. Format: cell-based. The following applies: Escherichia coli; E. coli (8 strains); normal.
Source text: as §1

The test system of assay [2] is N. gonorrhoeae. The experiment in a line: Multi-step resistance selection. Format: cell-based. The following applies: over ten passages. The text has this:
Frequency of mutation—multi-step mutation—We investigated N. gonorrhoeae's ability to develop resistance to CAIs using the multi-step resistance selection experiment^58.
N. gonorrhoeae cultures that grew at the highest concentrations of the compound are used as an inoculum for the subsequent culture.

Another assay relates to ATCC strain 700825. The experiment in a line: MICs against ATCC strain 700825. The following applies: Neisseria gonorrhoeae. The class given is cell-based, N. gonorrhoeae. The method, then:
These tests were performed in normal culture conditions with standard CO2 levels and in CO2 (5% in incubator) conditions.

≈ marks a conversion by molar mass, not a printed value.

`CCOc1ccc2nc(S(N)(=O)=O)sc2c1` [Ethoxzolamide]: the MIC50 against Enterococcus is 4 µg/mL (≈ 15.5 µM); in the assay with L. jensenii, over 256 µg/mL; in the assay with L. rhamnosus, over 256 µg/mL; in the assay on E. coli, over 256 µg/mL. The FIC in the assay with N. gonorrhoeae [1] was determined as 0.240. In addition, the “increase in MIC” value in the assay on N. gonorrhoeae [2] is “no increase”. The minimum inhibitory concentration (MIC) against ATCC strain 700825 (ATCC700825, In CO2) was determined as 64 µg/mL (≈ 248 µM); against ATCC strain 700825 (ATCC700825, In air) it was 0.5 µg/mL (≈ 1.94 µM).

The term MIC50 denotes the lowest concentration that inhibits either 50% of growth or 50% of the strains tested, depending on the study. Low readings indicate greater potency, high ones weaker potency. The MIC is the lowest concentration that inhibits growth of the organism.
